What was measured:
Type in all cases: biochemical
JAK1 = molecular target: T1, JAK1 (Homo sapiens, UniProt P23458); test: JAK kinase assay (HTRF, phosphorylation of synthetic peptide), JAK1; conditions: catalytic domain, ATP at Km (7 μM); read-out: JAK1 kinase inhibitory activity (EC50)
T1 construct: JAK1 (aa 850-1154) and TYK2 (aa 871-1187) are expressed with an N-terminally fused GST-tag; GST (N); purchased Carna Biosciences, Inc; host or cells: baculovirus expression system
Procedure: (§1) Human baculovirus-expressed JAK1, 2, 3 and TYK2 were purchased from Carna Biosciences, Inc. All four purified enzymes contain only the catalytic domain. JAK1 (aa 850-1154) and TYK2 (aa 871-1187) are expressed with an N-terminally fused GST-tag, and JAK2 and JAK3 with an N-terminally fused His-tag.
(§2) Inhibition of phosphorylation of a synthetic peptide was measured in an HTRF-based assay using the TK substrate-Biotin from the Cisbio HTRFKinEASE TK kit. First, 2 μl of TK solution (TK substrate-biotin in kinase buffer [1× enzymatic buffer from HTRFKinEASE TK kit, 1 mM DTT]) is added to a plate containing 1 μl prediluted compound (final assay concentration DMSO: 0.75%). Then, 5 μl kinase-ATP mix (prepared in kinase buffer) is added to the wells and the plates are incubated at RT for 20-30 min. For all four kinases a concentration of ATP that corresponded to the Km for ATP was used. The final concentrations of buffers, substrate, kinase and ATP were: JAK1: 50 mM Hepes buffer pH 7.0, 0.01% BSA, 10 mM MgCl2, 1 mM DTT, 7 μM ATP, 50 nM SEB, 1 μM TK Substrate-Biotin and 5 ng JAK1; JAK2: 50 mM Hepes buffer pH 7.0, 0.01% BSA, 5 mM MgCl2, 1 mM DTT, 4 μM ATP, 1 μM TK Substrate-Biotin and 0.1 ng JAK2; JAK3: 50 mM Hepes buffer pH 7.0, 0.01% BSA, 5 mM MgCl2, 1 mM DTT, 2 μM ATP, 1 μM TK Substrate-Biotin and 0.3 ng JAK3; TYK2: 50 mM Hepes buffer pH 7.0, 0.01% BSA, 5 mM MgCl2, 1 mM DTT, 13 μM ATP, 50 nM SEB, 1 μM TK Substrate-Biotin and 0.8 ng TYK2. Thereafter, the kinase reaction is stopped by adding 4 μl detection mix (final concentrations: 50 mM Hepes buffer pH 7.0, 0.01% BSA, 0.8 M KF, 20 mM EDTA, 42 nM Streptavidin-XL665 and 1:400 STK Ab Cryptate) and the plates are incubated overnight in the dark. The HTRF signal is read using an Envision plate reader.

JAK2 = molecular target: T2, JAK2 (Homo sapiens, UniProt O60674); test: JAK kinase assay (HTRF, phosphorylation of synthetic peptide), JAK2; conditions: catalytic domain, ATP at Km (4 μM); read-out: JAK2 kinase inhibitory activity (EC50)
T2 construct: All four purified enzymes contain only the catalytic domain; His (N); purchased Carna Biosciences, Inc; host or cells: baculovirus expression system
T2 sequence (O60674 849-1124 limits assumed): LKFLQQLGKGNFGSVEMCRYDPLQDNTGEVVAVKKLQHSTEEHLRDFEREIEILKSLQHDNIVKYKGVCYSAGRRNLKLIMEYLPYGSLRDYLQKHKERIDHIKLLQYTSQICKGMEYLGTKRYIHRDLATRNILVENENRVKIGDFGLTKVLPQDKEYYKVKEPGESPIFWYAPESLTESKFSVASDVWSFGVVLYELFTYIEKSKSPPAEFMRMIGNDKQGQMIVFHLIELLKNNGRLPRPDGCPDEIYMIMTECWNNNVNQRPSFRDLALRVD
Procedure: as §1, §2

JAK3 = molecular target: T3, JAK3 (Homo sapiens, UniProt P52333); test: JAK kinase assay (HTRF, phosphorylation of synthetic peptide), JAK3; conditions: catalytic domain, ATP at Km (2 μM); read-out: JAK3 kinase inhibitory activity (EC50)
T3 construct: All four purified enzymes contain only the catalytic domain; His (N); purchased Carna Biosciences, Inc; host or cells: baculovirus expression system
T3 sequence (P52333 822-1111 limits assumed): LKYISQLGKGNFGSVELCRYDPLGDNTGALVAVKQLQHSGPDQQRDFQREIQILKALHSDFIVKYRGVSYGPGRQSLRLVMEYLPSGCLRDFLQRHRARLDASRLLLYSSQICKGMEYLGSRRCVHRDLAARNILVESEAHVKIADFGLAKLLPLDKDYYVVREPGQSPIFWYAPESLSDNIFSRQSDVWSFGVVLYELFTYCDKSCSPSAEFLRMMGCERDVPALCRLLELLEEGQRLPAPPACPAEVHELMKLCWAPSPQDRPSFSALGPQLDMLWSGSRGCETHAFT
Procedure: as §1, §2

TYK2 = molecular target: T4, TYK2 (Homo sapiens, UniProt P29597); test: JAK kinase assay (HTRF, phosphorylation of synthetic peptide), TYK2; conditions: catalytic domain, ATP at Km (13 μM); read-out: TYK2 kinase inhibitory activity (EC50)
T4 construct: JAK1 (aa 850-1154) and TYK2 (aa 871-1187) are expressed with an N-terminally fused GST-tag; GST (N); purchased Carna Biosciences, Inc; host or cells: baculovirus expression system
T4 sequence (P29597 871-1187): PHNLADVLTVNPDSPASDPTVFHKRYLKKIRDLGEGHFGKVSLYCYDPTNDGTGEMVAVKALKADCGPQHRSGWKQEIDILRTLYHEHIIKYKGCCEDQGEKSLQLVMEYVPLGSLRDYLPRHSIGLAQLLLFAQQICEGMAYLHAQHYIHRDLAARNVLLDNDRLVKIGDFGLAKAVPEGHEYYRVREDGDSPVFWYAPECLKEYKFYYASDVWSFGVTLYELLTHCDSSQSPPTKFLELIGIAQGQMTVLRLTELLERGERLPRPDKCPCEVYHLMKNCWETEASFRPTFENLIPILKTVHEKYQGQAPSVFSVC
Procedure: as §1, §2

T1 sequence (P23458 850-1154): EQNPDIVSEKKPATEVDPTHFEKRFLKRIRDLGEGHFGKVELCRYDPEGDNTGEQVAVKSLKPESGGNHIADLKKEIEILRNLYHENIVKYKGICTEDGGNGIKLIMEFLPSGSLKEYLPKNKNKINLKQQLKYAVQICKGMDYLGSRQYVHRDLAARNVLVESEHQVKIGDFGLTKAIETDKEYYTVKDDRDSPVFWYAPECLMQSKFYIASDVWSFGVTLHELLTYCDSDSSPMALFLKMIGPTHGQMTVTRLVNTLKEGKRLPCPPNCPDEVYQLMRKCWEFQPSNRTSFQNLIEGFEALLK

EC50 (JAK1) | EC50 (JAK2) | EC50 (JAK3) | EC50 (TYK2) | SMILES
< 100 nM | 100 to 500 nM | > 500 nM | > 500 nM | CN(C(=O)CCC1CCCC1)S(=O)(=O)N1CCN(c2ncnc3[nH]ccc23)CC12CC2 [Example 134, 3-cyclopentyl-N-methyl-N-[[5-(7H-pyrrolo[2,3-d]pyrimidin-4-yl)-5,8-diazaspiro[2.5]octan-8-yl]sulfonyl]propanamide]
< 100 nM | < 100 nM | < 100 nM | < 100 nM | N#CCCCN(C1COC1)S(=O)(=O)N1CCN(c2ncnc3[nH]ccc23)CC12CC2 [Example 114, N-(3-cyanopropyl)-N-(oxetan-3-yl)-5-(7H-pyrrolo[2,3-d]pyrimidin-4-yl)-5,8-diazaspiro[2.5]octane-8-sulfonamide]
< 100 nM | < 100 nM | 100 to 500 nM | 100 to 500 nM | CN(CCO)S(=O)(=O)N1CCN(c2ncnc3[nH]ccc23)CC12CC2 [Example 109, N-(2-hydroxyethyl)-N-methyl-5-(7H-pyrrolo[2,3-d]pyrimidin-4-yl)-5,8-diazaspiro[2.5]octane-8-sulfonamide]
< 100 nM | < 100 nM | 100 to 500 nM | > 500 nM | CN(CC1CCN(C(=O)CCO)C1)S(=O)(=O)N1CCN(c2ncnc3[nH]ccc23)CC12CC2 (centres unmarked) [Example 123, N-[[1-(3-hydroxypropanoyl)pyrrolidin-3-yl]methyl]-N-methyl-5-(7H-pyrrolo[2,3-d]pyrimidin-4-yl)-5,8-diazaspiro[2.5]octane-8-sulfonamide]
< 100 nM | < 100 nM | < 100 nM | < 100 nM | CN(Cc1ccc(S(N)(=O)=O)cc1)S(=O)(=O)N1CCN(c2ncnc3[nH]ccc23)CC12CC2 [Example 91, N-methyl-5-(7H-pyrrolo[2,3-d]pyrimidin-4-yl)-N-[(4-sulfamoylphenyl)methyl]-5,8-diazaspiro[2.5]octane-8-sulfonamide]
< 100 nM | < 100 nM | < 100 nM | 100 to 500 nM | CN(C1COC1)S(=O)(=O)N1CCN(c2ncnc3[nH]ccc23)CC12CC2 [Example 112, N-methyl-N-(oxetan-3-yl)-5-(7H-pyrrolo[2,3-d]pyrimidin-4-yl)-5,8-diazaspiro[2.5]octane-8-sulfonamide]
< 100 nM | < 100 nM | 100 to 500 nM | > 500 nM | CC#CCN(CCc1ccccc1)S(=O)(=O)N1CCN(c2ncnc3[nH]ccc23)CC12CC2 [Example 23, 7-(7H-Pyrrolo[2,3-d]pyrimidin-4-yl)-4,7-diaza-spiro[2.5]octane-4-sulfonic acid but-2-ynyl-phenethyl-amide]
< 100 nM | < 100 nM | < 100 nM | < 100 nM | CN(C[C@H]1CCCN1C(=O)CO)S(=O)(=O)N1CCN(c2ncnc3[nH]ccc23)CC12CC2 [Example 185, N-[[(2R)-1-(2-hydroxyacetyl)pyrrolidin-2-yl]methyl]-N-methyl-5-(7H-pyrrolo[2,3-d]pyrimidin-4-yl)-5,8-diazaspiro[2.5]octane-8-sulfonamide]
< 100 nM | < 100 nM | 100 to 500 nM | > 500 nM | CN(CC1CCNC1)S(=O)(=O)N1CCN(c2ncnc3[nH]ccc23)CC12CC2 (centres unmarked) [Int 25]
< 100 nM | < 100 nM | 100 to 500 nM | 100 to 500 nM | CN(c1ccccc1)S(=O)(=O)N1CCN(c2ncnc3[nH]ccc23)CC12CC2 [Example 40, 7-(7H-Pyrrolo[2,3-d]pyrimidin-4-yl)-4,7-diaza-spiro[2.5]octane-4-sulfonic acid methyl-phenyl-amide]
< 100 nM | < 100 nM | 100 to 500 nM | 100 to 500 nM | O=S(=O)(N(CCn1ccnc1)C1CCC1)N1CCN(c2ncnc3[nH]ccc23)CC12CC2 [Example 104, N-cyclobutyl-N-(2-imidazol-1-ylethyl)-5-(7H-pyrrolo[2,3-d]pyrimidin-4-yl)-5,8-diazaspiro[2.5]octane-8-sulfonamide]
< 100 nM | < 100 nM | < 100 nM | < 100 nM | N#CCN(C1COC1)S(=O)(=O)N1CCN(c2ncnc3[nH]ccc23)CC12CC2 [Example 113, N-(cyanomethyl)-N-(oxetan-3-yl)-5-(7H-pyrrolo[2,3-d]pyrimidin-4-yl)-5,8-diazaspiro[2.5]octane-8-sulfonamide]
< 100 nM | < 100 nM | < 100 nM | 100 to 500 nM | CN(C1CCCC1)S(=O)(=O)N1CCN(c2ncnc3[nH]ccc23)CC12CC2 [Example 61, N-cyclopentyl-N-methyl-5-(7H-pyrrolo[2,3-d]pyrimidin-4-yl)-5,8-diazaspiro[2.5]octane-8-sulfonamide]
< 100 nM | < 100 nM | 100 to 500 nM | 100 to 500 nM | CN(OCc1ccccc1)S(=O)(=O)N1CCN(c2ncnc3[nH]ccc23)CC12CC2 [Example 174, N-benzyloxy-N-methyl-5-(7H-pyrrolo[2,3-d]pyrimidin-4-yl)-5,8-diazaspiro[2.5]octane-8-sulfonamide]
< 100 nM | < 100 nM | < 100 nM | 100 to 500 nM | CC(C#N)N(C1COC1)S(=O)(=O)N1CCN(c2ncnc3[nH]ccc23)CC12CC2 (centres unmarked) [Example 117, N-(1-cyanoethyl)-N-(oxetan-3-yl)-5-(7H-pyrrolo[2,3-d]pyrimidin-4-yl)-5,8-diazaspiro[2.5]octane-8-sulfonamide]
< 100 nM | < 100 nM | < 100 nM | < 100 nM | N#CCCN(CC#N)S(=O)(=O)N1CCN(c2ncnc3[nH]ccc23)CC12CC2 [Example 171, N-(2-cyanoethyl)-N-(cyanomethyl)-5-(7H-pyrrolo[2,3-d]pyrimidin-4-yl)-5,8-diazaspiro[2.5]octane-8-sulfonamide]
100 to 500 nM | 100 to 500 nM | > 500 nM | > 500 nM | O=S(=O)(N(CCc1ccccc1)CCc1cccc(F)c1)N1CCN(c2ncnc3[nH]ccc23)CC12CC2 [Example 48, 7-(7H-Pyrrolo[2,3-d]pyrimidin-4-yl)-4,7-diaza-spiro[2.5]octane-4-sulfonic acid [2-(3-fluoro-phenyl)-ethyl]-phenethyl-amide]
< 100 nM | < 100 nM | 100 to 500 nM | > 500 nM | CN(C(=O)C1CCCS(=O)(=O)C1)S(=O)(=O)N1CCN(c2ncnc3[nH]ccc23)CC12CC2 (centres unmarked) [Example 140, N-methyl-1,1-dioxo-N-[[5-(7H-pyrrolo[2,3-d]pyrimidin-4-yl)-5,8-diazaspiro[2.5]octan-8-yl]sulfonyl]thiane-3-carboxamide]
< 100 nM | < 100 nM | < 100 nM | > 500 nM | N#CCCCN(CCCc1ccccc1)S(=O)(=O)N1CCN(c2ncnc3[nH]ccc23)CC12CC2 [Example 57, 7-(7H-Pyrrolo[2,3-d]pyrimidin-4-yl)-4,7-diaza-spiro[2.5]octane-4-sulfonic acid (3-cyano-propyl)-(3-phenyl-propyl)-amide]
< 100 nM | < 100 nM | < 100 nM | < 100 nM | CN(C[C@@H]1CC(F)(F)CN1C(=O)CCC#N)S(=O)(=O)N1CCN(c2ncnc3[nH]ccc23)CC12CC2 [Example 156, N-[[(2S)-1-(3-cyanopropanoyl)-4,4-difluoro-pyrrolidin-2-yl]methyl]-N-methyl-5-(7H-pyrrolo[2,3-d]pyrimidin-4-yl)-5,8-diazaspiro[2.5]octane-8-sulfonamide]

Source: patent publication US9233964B2, “Sulfamide piperazine derivatives as protein tyrosine kinase inhibitors and pharmaceutical use therof” (LEO PHARMA A/S, priority 2011, dated 2016)
